Assays:
[1] = target: T1, PDC-109 (Bos taurus, UniProt P02784); experiment: fluorescence titration, Scatchard analysis; type: binding; conditions: read-out: K a (converted)
T1 construct: native, purified from bovine seminal plasma (Sephadex G-50 gel filtration, DEAE Sephadex A-25); mature 109 residues, two FnII domains, O-glycosylated; polydisperse oligomers
T1 sequence (P02784 26-134): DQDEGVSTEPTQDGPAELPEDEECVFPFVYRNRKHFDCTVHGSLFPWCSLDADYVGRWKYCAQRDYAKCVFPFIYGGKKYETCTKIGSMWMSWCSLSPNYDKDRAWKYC

[2] = target: T1, PDC-109; experiment: near-UV CD; type: binding; conditions: sonicated unilamellar vesicles, 0.1 mM lipid, pH 7.4, room temperature
[3] = target: T1, PDC-109; experiment: ANS fluorescence in presence of PrC; conditions: 10 mM PrC, 50 µM ANS, 0.05 mg/mL protein; lowers ANS binding
[4] = target: T1, PDC-109; experiment: isothermal titration calorimetry, sequential binding model; conditions: read-out: Ka × 10^3 (M^-1) (converted)
Description: isothermal titration calorimetry, sequential binding model on PDC-109

**Q.** With `O=S(=O)(O)c1cccc2cccc(Nc3ccccc3)c12` [ANS, 8-anilinonaphthalene sulphonic acid] as the compound, how does the Kd [1] read?
**A.** 32.4 µM

**Q.** With `CCCCCCCCCCCCCC(=O)OC[C@H](COP(=O)([O-])OCC[N+](C)(C)C)OC(=O)CCCCCCCCCCCCC` [DMPC] as the compound, how does the “near-UV CD” value [2] read?
**A.** the protein tertiary structure is altered upon phospholipid binding

**Q.** For `CCCCCCCCCCCCCC(=O)OC[C@H](COP(=O)(O)OCC(O)CO)OC(=O)CCCCCCCCCCCCC` (some centres unmarked) [DMPG], which “near-UV CD” value [2] is on record?
**A.** the protein tertiary structure is altered upon phospholipid binding

**Q.** With `C[N+](C)(C)CCOP(=O)([O-])O` [PrC] as the compound, how does the “ANS fluorescence in presence of PrC” value [3] read?
**A.** PrC binding leads to a significant decrease in the surface hydrophobicity of the protein

**Q.** How did the Kd [4] turn out when `O=S(=O)(O)c1cccc2c(-c3ccc(Nc4ccccc4)c4c(S(=O)(=O)O)cccc34)ccc(Nc3ccccc3)c12` [bisANS, 4,4′-Dianilino-1,1′-binaphthyl-5,5′-disulphonic acid] was run?
**A.** 389 µM
